Test results published in patent US20250320213A1, “Nitrogen-Containing Heterocyclic Compounds” (Pfizer Inc., priority 2024, published 2025).

Experiments:
STAT6 = target: T1, STAT6 (Homo sapiens, UniProt P42226); assay: STAT6 Reporter Luciferase Assay (IL-13 stimulated HaCaT keratinocyte NanoLuc reporter cells); assay type: cell-based; details: IL-13 stimulated HaCaT STAT6 NanoLuc reporter cells; read-out: Reporter EC50
T1 construct: stably transfected HaCaT keratinocyte cell line, which expresses NanoLuc luciferase reporter gene under the transcriptional control of the STAT6 responsive promoter; endogenous in cells; host or cells: HaCaT keratinocyte reporter cell line (stably transfected with a NanoLuc reporter)
T1 sequence (P42226 1-847): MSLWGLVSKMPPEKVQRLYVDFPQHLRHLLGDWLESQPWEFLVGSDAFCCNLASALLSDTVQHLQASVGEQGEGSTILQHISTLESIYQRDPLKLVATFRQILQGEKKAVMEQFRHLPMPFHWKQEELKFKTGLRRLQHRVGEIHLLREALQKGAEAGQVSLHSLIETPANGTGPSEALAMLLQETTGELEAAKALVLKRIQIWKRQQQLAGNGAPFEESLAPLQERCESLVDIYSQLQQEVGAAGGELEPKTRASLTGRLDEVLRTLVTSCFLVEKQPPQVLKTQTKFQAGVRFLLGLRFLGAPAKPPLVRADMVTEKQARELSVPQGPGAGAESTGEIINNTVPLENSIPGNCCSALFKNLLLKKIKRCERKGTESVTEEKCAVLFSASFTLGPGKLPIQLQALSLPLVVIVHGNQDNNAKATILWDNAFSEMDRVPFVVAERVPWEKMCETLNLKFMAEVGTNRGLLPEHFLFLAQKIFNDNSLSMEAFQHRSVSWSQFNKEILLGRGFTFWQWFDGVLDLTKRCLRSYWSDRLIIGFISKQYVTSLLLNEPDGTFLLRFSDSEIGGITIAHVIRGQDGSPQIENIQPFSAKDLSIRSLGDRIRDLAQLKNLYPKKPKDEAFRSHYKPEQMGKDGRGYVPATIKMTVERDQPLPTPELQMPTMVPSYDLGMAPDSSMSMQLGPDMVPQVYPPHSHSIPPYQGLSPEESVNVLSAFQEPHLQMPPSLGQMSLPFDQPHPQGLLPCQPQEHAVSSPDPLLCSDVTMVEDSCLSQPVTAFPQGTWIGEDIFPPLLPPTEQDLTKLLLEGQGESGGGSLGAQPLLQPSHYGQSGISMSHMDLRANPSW
Outline: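 Compounds were tested as 11-point, 4-fold series in duplicate, applied for 2 h at 37 °C in low-serum (2% FBS) DMEM. The cells were a stable HaCaT line with NanoLuc under a STAT6-responsive IL-13Ra2 promoter. After 4 h with 0.12 nM IL-13, Nano-Glo luminescence was measured.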

[1] = system: CCL17 secretion in peripheral human whole blood; assay: Human Whole Blood (HWB) CCL17 TR-FRET Assay (IL-13 stimulated CCL17 secretion); assay type: cell-based; details: Homo sapiens, 48 h, human whole blood
Outline: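 TR-FRET sandwich immunoassay (665/615 nm ratio) read CCL17 in serum from heparinized whole blood after 16 h RT detection. Blood was exposed to compound for 2 h at 37 °C, then to 10 ng/mL IL-13 (final) for 48 h. IC50 from 11-point, 3-fold titrations in duplicate.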

Structure (SMILES) | EC50 (STAT6) [nM] | IC50 ([1]; IL-13 stimulated) [nM] | IC50 ([1]; 10 ng/mL IL13, 48 hours) [nM]
CCn1nc(C(=O)NCc2ccc(NC(=O)N(C)C)cc2)c2c1CCN(c1ccc(C(=O)N(C)C)cn1)[C@@H]2C [Example 513, (R)-5-(5-(dimethylcarbamoyl)pyridin-2-yl)-N-(4-(3,3-dimethylureido)benzyl)-1-ethyl-4-methyl-4,5,6,7-tetrahydro-1H-pyrazolo[4,3-c]pyridine-3-carboxamide] | 3 | 18 | 
CC(C)n1nc(C(=O)NCc2ccc(NC(=O)N(C)C)cn2)c2c1C[C@H](C)N(c1ncc(C(=O)N(C)C)cn1)C2 [Example 533, (S)-5-(5-(dimethylcarbamoyl)pyrimidin-2-yl)-N-((5-(3,3-dimethylureido)pyridin-2-yl)methyl)-1-isopropyl-6-methyl-4,5,6,7-tetrahydro-1H-pyrazolo[4,3-c]pyridine-3-carboxamide] | 5 |  | 18
CNC(=O)c1ccc(CNC(=O)c2nn(C(C)C)c3c2CN(c2ncc(C(=O)N(C)C)cn2)[C@@H](C)C3)cc1 [Example 534, (S)-5-(5-(dimethylcarbamoyl)pyrimidin-2-yl)-1-isopropyl-6-methyl-N-(4-(methylcarbamoyl)benzyl)-4,5,6,7-tetrahydro-1H-pyrazolo[4,3-c]pyridine-3-carboxamide] | 33 |  | 155
CC(C)n1nc(C(=O)NCc2ccc(NC(=O)N(C)C)cn2)c2c1C[C@H](C)N(c1ccc(C(=O)N(C)C)cn1)C2 [Example 535, (S)-5-(5-(dimethylcarbamoyl)pyridin-2-yl)-N-((5-(3,3-dimethylureido)pyridin-2-yl)methyl)-1-isopropyl-6-methyl-4,5,6,7-tetrahydro-1H-pyrazolo[4,3-c]pyridine-3-carboxamide] | 5 |  | 13
CC(C)n1nc(C(=O)NCc2ccc(-c3ncc[nH]3)cc2)c2c1C[C@H](C)N(c1ccc(C(=O)N(C)C)cn1)C2 [Example 536, (S)-N-(4-(1H-imidazol-2-yl)benzyl)-5-(5-(dimethylcarbamoyl)pyridin-2-yl)-1-isopropyl-6-methyl-4,5,6,7-tetrahydro-1H-pyrazolo[4,3-c]pyridine-3-carboxamide] | 4 |  | 31
CNC(=O)c1ccc(CNC(=O)c2nn(C(C)C)c3c2CN(c2ccc(C(=O)N(C)C)cn2)[C@@H](C)C3)cc1 [Example 540, (S)-5-(5-(dimethylcarbamoyl)pyridin-2-yl)-1-isopropyl-6-methyl-N-(4-(methylcarbamoyl)benzyl)-4,5,6,7-tetrahydro-1H-pyrazolo[4,3-c]pyridine-3-carboxamide] | 27 |  | 76
CCn1nc(C(=O)NCc2ccc(NC(=O)N(C)C)cc2)c2c1C1(CC1)CN(c1ccc(C(=O)N(C)C)cn1)C2 [Example 555, 5′-(5-(dimethylcarbamoyl)pyridin-2-yl)-N-(4-(3,3-dimethylureido)benzyl)-1′-ethyl-1′,4′,5′,6′-tetrahydrospiro[cyclopropane-1,7′-pyrazolo[4,3-c]pyridine]-3′-carboxamide] | 5 |  | 52
CC(C)n1nc(C(=O)NCc2ccc(NC(=O)N3CCNCC3)c(F)c2)c2c1[C@@H](C)CN(c1ccc(C(=O)N(C)C)cc1)C2 [Example 566, (S)-5-(4-(dimethylcarbamoyl)phenyl)-N-(3-fluoro-4-(piperazine-1-carboxamido)benzyl)-1-isopropyl-7-methyl-4,5,6,7-tetrahydro-1H-pyrazolo[4,3-c]pyridine-3-carboxamide] | 2 |  | 15

Other lines, results leading:

EC50 (STAT6) [nM] | IC50 ([1]; IL-13 stimulated) [nM] | IC50 ([1]; 10 ng/mL IL13, 48 hours) [nM] | Structure (SMILES)
1 | 5 |  | CC(C)n1nc(C(=O)NCc2ccc(NC(N)=O)cc2)c2c1[C@@H](C)CN(c1ccc(-c3nccn3C)cn1)C2 [Example 516, (S)-1-isopropyl-7-methyl-5-(5-(1-methyl-1H-imidazol-2-yl)pyridin-2-yl)-N-(4-ureidobenzyl)-4,5,6,7-tetrahydro-1H-pyrazolo[4,3-c]pyridine-3-carboxamide]
9 | 33 |  | CC(C)n1nc(C(=O)NCc2ccc(C(N)=O)cc2)c2c1[C@@H](C)CN(c1ccc(N3CCOC3=O)cn1)C2 [Example 517, (S)-N-(4-carbamoylbenzyl)-1-isopropyl-7-methyl-5-(5-(2-oxooxazolidin-3-yl)pyridin-2-yl)-4,5,6,7-tetrahydro-1H-pyrazolo[4,3-c]pyridine-3-carboxamide]
2 | 71 |  | Cc1c[nH]c(-c2ccc(CNC(=O)c3nn(C(C)C)c4c3CN(c3ccc(N5CCOC5=O)cn3)C[C@@H]4C)cc2)n1 [Example 518, (S)-1-isopropyl-7-methyl-N-(4-(4-methyl-1H-imidazol-2-yl)benzyl)-5-(5-(2-oxooxazolidin-3-yl)pyridin-2-yl)-4,5,6,7-tetrahydro-1H-pyrazolo[4,3-c]pyridine-3-carboxamide]
8 | 219 |  | Cc1c[nH]c(-c2ccc(CNC(=O)c3nn(C(C)C)c4c3CN(c3ncc(N5CCOC5=O)cn3)C[C@@H]4C)cc2)n1 [Example 519, (S)-1-isopropyl-7-methyl-N-(4-(4-methyl-1H-imidazol-2-yl)benzyl)-5-(5-(2-oxooxazolidin-3-yl)pyrimidin-2-yl)-4,5,6,7-tetrahydro-1H-pyrazolo[4,3-c]pyridine-3-carboxamide]
1 | 22 |  | CNC(=O)Nc1ccc(CNC(=O)c2nn(C(C)C)c3c2CN(c2ccc(N4CCOC4=O)cn2)C[C@@H]3C)cc1 [Example 520, (S)-1-isopropyl-7-methyl-N-(4-(3-methylureido)benzyl)-5-(5-(2-oxooxazolidin-3-yl)pyridin-2-yl)-4,5,6,7-tetrahydro-1H-pyrazolo[4,3-c]pyridine-3-carboxamide]
2 | 34 |  | CNC(=O)Nc1ccc(CNC(=O)c2nn(C(C)C)c3c2CN(c2ccc(-n4c(C)nn(C)c4=O)cn2)C[C@@H]3C)cc1 [Example 521, (S)-5-(5-(1,3-dimethyl-5-oxo-1,5-dihydro-4H-1,2,4-triazol-4-yl)pyridin-2-yl)-1-isopropyl-7-methyl-N-(4-(3-methylureido)benzyl)-4,5,6,7-tetrahydro-1H-pyrazolo[4,3-c]pyridine-3-carboxamide]
2 | 7 |  | CC(C)n1nc(C(=O)NCc2ccc(NC(=O)N3CCNCC3)cc2)c2c1[C@@H](C)CN(c1ccc(C(=O)N(C)C)cc1)C2 [Example 525, (S)-5-(4-(dimethylcarbamoyl)phenyl)-1-isopropyl-7-methyl-N-(4-(piperazine-1-carboxamido)benzyl)-4,5,6,7-tetrahydro-1H-pyrazolo[4,3-c]pyridine-3-carboxamide]
4010 | 2040 |  | CNC(=O)Nc1ccc(CNC(=O)c2n[nH]c3c2CN(c2ccc(C(=O)N(C)C)cn2)CC3)cc1 [Example 526, 5-(5-(dimethylcarbamoyl)pyridin-2-yl)-N-(4-(3-methylureido)benzyl)-4,5,6,7-tetrahydro-1H-pyrazolo[4,3-c]pyridine-3-carboxamide]
0.2 |  | 6 | CC(C)n1nc(C(=O)NCc2ccc(NC(=O)N(C)C)cc2)c2c1[C@@H](C)CN(c1ccc(N3CCCC3=O)cn1)C2 [Example 530, (S)—N-(4-(3,3-Dimethylureido)benzyl)-1-isopropyl-7-methyl-5-(5-(2-oxopyrrolidin-1-yl)pyridin-2-yl)-4,5,6,7-tetrahydro-1H-pyrazolo[4,3-c]pyridine-3-carboxamide]
3 |  | 8 | CC(C)n1nc(C(=O)NCc2ccc(NC(N)=O)cc2)c2c1[C@@H](C)CN(c1ncc(-c3nccn3C)cn1)C2 [Example 562, (S)-1-isopropyl-7-methyl-5-(5-(1-methyl-1H-imidazol-2-yl)pyrimidin-2-yl)-N-(4-ureidobenzyl)-4,5,6,7-tetrahydro-1H-pyrazolo[4,3-c]pyridine-3-carboxamide]
1 |  | 13 | CC(C)n1nc(C(=O)NCc2ccc(NC(=O)N3CCCN(C)CC3)cc2)c2c1[C@@H](C)CN(c1ccc(C(=O)N(C)C)cc1)C2 [Example 567, (S)-5-(4-(Dimethylcarbamoyl)phenyl)-1-isopropyl-7-methyl-N-(4-(4-methyl-1,4-diazepane-1-carboxamido)benzyl)-4,5,6,7-tetrahydro-1H-pyrazolo[4,3-c]pyridine-3-carboxamide]
